Experimental data published in US20080044436A1, “Method for Screening and Compositions for Treating Cancers” (priority 2004, published 2008).

B1: TReP-132: Transcriptional Regulating Protein of 132 kDa, polypeptide comprising SEQ ID NO: 2; here expressed in cells from vectors (protein)
chain: MGDQQLYKTNHVAHGSENLFYQQPPLGVHSGLNHNYGNAVTGGGMDAPQASPISPHFPQDTRDGLGLPVGSKNLGQMDTSRQGGWGSHAGPGNHVQLRGNLANSNMMWGAPAQAEPTDGYQYTYSQASEIRTQKLTSGVLHKLDSFTQVFANQNLRIQVNNMAQVLHTQSAVMDGAPDSALRQLLSQKPMEPPAPAIPSRYQQVPQQPHPGFTGGLSKPALQVGQHPTQGHLYYDYQQPLAQVPVQGGQPLQAPQMLSQHMQQMQQHQYYPPQQQQQAGQQRISMQEIQTQPQQIRPSQPQPPPQQQQPQQLQLQQRQGSMQIPQYYQPQPMMQHLQEQQQQQMHLQPPSYHRDPHQYTPEQAHTVQLIPLGSMSQYYYQEPQQPYSHPLYQQSHLSQHQQREDSQLKTYSSDRQAQAMLSSHGDLGPPDTGMGDPASSDLTRVSSTLPHRPLLSPSGIHLNNMGPQHQQLSPSAMWPQMHLPDGRAQPGSPESSGQPKGAFGEQFDAKNKLTCSICLKEFKNLPALNGHMRSHGGMRASPNLKQEEGEKVLPPQPQPPLPPPPPPPPPPQLPPEAESLTPMVMPVSVPVKLLPPKPSSQGFTNSTVAAPSARDKPASSMSDDEMPVLEIPRKHQPSVPKAEEPLKTVQEKKKFRHRPEPLFIPPPPSYNPNPAASYSGATLYQSQLRSPRVLGDHLLLDPTHELPPYTPPPMLSPVRQGSGLFSNVLISGHGPGAHPQLPLTPLTPTPRVLLCRSNSIDGSNVTVTPGPGEQTVDVEPRINIGLRFQAEIPELQDISALAQDTHKATLVWKPWPELENHDLQQRVENLLNLCCSSALPGGGTNSEFALHSLFEAKGDVMVALEMLLLRKPVRLKCHPLANYHYAGSDKWTSLERKLFNKALATYSKDFIFVQKMVKSKTVAQCVEYYYTWKKIMRLGRKHRTRLAEIIDDCVTSEEEEELEEEEEEDPEEDRKSTKEEESEVPKSPEPPPVPVLAPTEGPPLQALGQPSGSFICEMPNCGAVFSSRQALNGHARIHGGTNQVTKARGAIPSGKQKPGGTQSGYCSVKSSPSHSTTSGETDPTTIFPCKECGKVFFKIKSRNAHMKTHRQQEEQQRQKAQKAAFAAEMAATIERTTGPVGAPGLLPLDQLSLIKPIKDVDILDDDVVQQLGGVMEEAEVVDTDLLLDDQDSVLLQGDAEL

System: p27 promoter
Assay: Luciferase reporter assay in T47-D cells, p27 promoter
Type: cell-based, human
Details: 30 nM progesterone for 34 hours or TReP-132 expression vector
Procedure: FIGS. 14A and 14B: T47-D cells were cotransfected with reporter constructs containing the p21 (FIG. 14A) or p27 (FIG. 14B) promoter. Twelve hours post-transfection, the cells were incubated with 30 nM progesterone or ethanol for 34 hours. The cell lysates were then assayed for luciferase activity. Luciferase activity of the −93p21 Luc and −549p27 Luc constructs represent level 1. Arrows indicate transcription initiation sites.
The pGL2 and pGL3 reporter constructs (100 ng) were cotransfected with the indicated amounts of expression vectors and 10 ng of the control plasmid pRL.Null. The amount of plasmid was then normalized with the empty vector pcDNA3. After 12 hours of transfection, the medium was changed and cells were incubated for an additional 10 and 34 hours, respectively. During this period, T47-D cells were cultured in the presence and absence of progesterone (30 nM). The cells were then harvested and cell lysates (20 μl) were assayed for luciferase activity (Dual Luciférase™ Reporter Assay System, Promega, Madison, Wis., USA) in a Berthold LUMAT LB9501 luminometer. The transfections were performed in triplicate and each experiment was repeated at least three times.

| Molecule | p27 promoter activation |
| --- | --- |
| CC(=O)[C@H]1CC[C@H]2[C@@H]3CCC4=CC(=O)CC[C@]4(C)[C@H]3CC[C@]12C [progesterone, reference compound] | activated the two promoters |
| B1 | activated the two promoters |
